Experimental data: US8871777B2, “Phenylpyrimidone compounds, the pharmaceutical compositions, preparation methods and uses thereof” (Topharman Shanghai Co., Ltd., priority 2008, dated 2014)

What was measured:
[1] = biological target: T1, PDE6 in bovine retina (Bos taurus, UniProt P11541+P23439); assay: PDE6 enzyme inhibition activity test (scintillation proximity); format: biochemical; conditions: for IC50: PDE6 separated from bovine retina, read-out: PDE6 IC50; for PDE6 IC50/PDE5 IC50: selectivity, ratio of IC50 PDE6/IC50 PDE5
T1 construct: obtained by suitably treating various tissues and separating the enzyme with FPLC; from tissue; host or cells: bovine retina
T1 sequence (P11541 2-856 limits assumed): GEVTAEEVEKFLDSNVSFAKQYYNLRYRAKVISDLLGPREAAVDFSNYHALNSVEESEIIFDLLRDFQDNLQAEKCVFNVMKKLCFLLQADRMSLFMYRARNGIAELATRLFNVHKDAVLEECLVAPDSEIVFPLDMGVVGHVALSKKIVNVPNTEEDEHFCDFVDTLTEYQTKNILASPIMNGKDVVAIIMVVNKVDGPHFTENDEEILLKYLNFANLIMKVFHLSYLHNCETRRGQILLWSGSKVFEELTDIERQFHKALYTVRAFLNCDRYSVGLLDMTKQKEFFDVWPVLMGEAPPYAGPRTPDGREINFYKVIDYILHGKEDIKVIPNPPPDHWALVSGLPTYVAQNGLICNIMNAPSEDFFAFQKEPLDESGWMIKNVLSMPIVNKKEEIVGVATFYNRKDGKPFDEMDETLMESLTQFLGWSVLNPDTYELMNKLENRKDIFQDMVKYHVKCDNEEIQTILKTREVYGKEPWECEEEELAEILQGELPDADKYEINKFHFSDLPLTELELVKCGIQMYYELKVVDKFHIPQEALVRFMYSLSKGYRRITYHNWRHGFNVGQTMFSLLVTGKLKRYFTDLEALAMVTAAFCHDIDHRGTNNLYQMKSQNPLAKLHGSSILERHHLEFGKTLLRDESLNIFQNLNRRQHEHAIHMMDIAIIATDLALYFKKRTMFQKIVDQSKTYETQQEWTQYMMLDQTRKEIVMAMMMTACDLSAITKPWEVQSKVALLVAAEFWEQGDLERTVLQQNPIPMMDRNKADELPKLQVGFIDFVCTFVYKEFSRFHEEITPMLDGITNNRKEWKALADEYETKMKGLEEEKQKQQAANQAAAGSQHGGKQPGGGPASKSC
T1 sequence (P23439 2-850 limits assumed): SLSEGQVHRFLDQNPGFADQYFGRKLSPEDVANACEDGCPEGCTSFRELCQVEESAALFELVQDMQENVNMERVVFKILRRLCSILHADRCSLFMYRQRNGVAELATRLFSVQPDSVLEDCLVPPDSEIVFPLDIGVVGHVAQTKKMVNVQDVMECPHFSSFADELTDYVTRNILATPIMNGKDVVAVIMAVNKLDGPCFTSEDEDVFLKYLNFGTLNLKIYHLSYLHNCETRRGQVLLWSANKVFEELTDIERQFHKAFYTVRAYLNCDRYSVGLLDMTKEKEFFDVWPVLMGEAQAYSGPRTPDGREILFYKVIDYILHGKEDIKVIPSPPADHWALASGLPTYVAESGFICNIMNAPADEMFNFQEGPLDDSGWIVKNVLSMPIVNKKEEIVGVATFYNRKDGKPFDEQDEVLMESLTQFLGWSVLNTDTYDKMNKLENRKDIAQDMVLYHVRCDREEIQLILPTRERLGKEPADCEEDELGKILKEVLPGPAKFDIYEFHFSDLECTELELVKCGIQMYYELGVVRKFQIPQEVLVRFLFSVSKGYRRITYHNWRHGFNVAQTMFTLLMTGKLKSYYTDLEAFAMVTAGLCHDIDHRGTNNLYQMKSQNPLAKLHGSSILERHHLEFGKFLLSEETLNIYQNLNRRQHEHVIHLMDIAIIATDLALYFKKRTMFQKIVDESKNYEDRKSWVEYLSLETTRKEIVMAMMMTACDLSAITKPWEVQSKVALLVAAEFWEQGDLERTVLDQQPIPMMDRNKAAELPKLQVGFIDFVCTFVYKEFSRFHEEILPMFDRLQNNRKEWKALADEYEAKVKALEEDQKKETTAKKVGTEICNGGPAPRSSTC
Procedure, shortened: (§1)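 Enzymes were used immediately after isolation: PDE6 from bovine retina, PDE5 from human platelets. Each was incubated 30 min at 30 °C with varying inhibitor concentrations and a small amount of substrate in Tris/HCl pH 7.5 buffer with MgCl2 and EGTA. Reactions were quenched with zinc-sulphate yttrium silicate SPA beads and product counted by scintillation.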

[2] = biological target: T2, human blood platelet PDE5 (Homo sapiens, UniProt O76074); assay: PDE5 enzyme inhibition activity test (scintillation proximity); format: biochemical
T2 construct: obtained by suitably treating various tissues and separating the enzyme with FPLC; from tissue; host or cells: human blood platelets
Procedure, shortened: as §1

Row | SMILES | IC50 [1] [nM] | PDE6 IC50/PDE5 IC50 [1] | IC50 ([2]; PDE5 table) [nM] | IC50 ([2]; as repeated in the PDE6 table) [nM]
1 | CCCOc1ccc(NC(=O)C2CCCCC2)cc1-c1nc(CC)c(CC)c(=O)[nH]1 [Example 55, N-(3-(1,6-dihydro-4,5-diethyl-6-oxopyrimidin-2-yl)-4-propoxyphenyl)cyclohexamide] | 20.1 | 21.8 | 0.92 | 0.93
2 | CCCOc1ccc(NC(=O)C2CC(O)CN2C(=O)OC(C)(C)C)cc1-c1nc(CC)c(CC)c(=O)[nH]1 (centres unmarked) [Example 57, N-(3-(1,6-dihydro-4,5-diethyl-6-oxopyrimidin-2-yl)-4-propoxyphenyl)-1-t-butyloxycarbonyl-4-hydroxyprolylamide] | 8.19 | 6.9 | 1.19 | 1.19
